Results reported in patent publication US9216182B2, “Carbamate/urea derivatives containing piperidin and piperazin rings as H3 receptor inhibitors” (Novartis AG, priority 2011, dated 2015).

## CC(C)N1CCN(C(=O)OC2CCN(c3ccc(C(N)=O)cn3)CC2)CC1 [Example 1.1, 1-(5-carbamoylpyridin-2-yl)piperidin-4-yl 4-isopropylpiperazine-1-carboxylate]
  melting point: 200.1 to 203.6 °C
